Results published in patent EP4467141A1, “PYRAZOLO-QUINOLINES AS SELECTIVE INHIBITORS OF GENOTOXIC STRESS-INDUCED IKK/NF- KB PATHWAYS FOR CANCER THERAPY” (Max-Delbrück-Centrum für Molekulare Medizin in der …, priority 2023, dated 2024).

Legend:
[1] = tested on: IKKγ; assay: IKKγ phosphorylation (S85) and mono-ubiquitination after irradiation (immunoprecipitation / Western blot); assay type: cell-based; conditions: irradiation (IR, 20 Gy); 1 hour pre-treatment
Procedure: Fig.7: (A) Immunoprecipitation of IKKγ from HEK293 lysates pre-treated for 1 hour with DMSO, MW01 or MW05, then irradiated (IR, 20 Gy) and lysed. (B) Western blot analysis of MEF cells pre-treated with DMSO, MW01, MW05 or ATM inhibitor KU55933 and irradiated (IR, 20 Gy). Lysates were subjected to SDS-PAGE/WB. The specific IKKγ S85 band (lower band) was identified by induction following irradiation and by sensitivity to ATMi and λ- phosphatase (λ-PP) treatment. (C) Western blot analysis of U2os cells pre-treated for 1 hour with the indicated substances, irradiated (IR, 20 Gy) and whole cell lysates probed for poly(ADP)-ribose. (D) Western blot analysis of cytoplasmic and nuclear fractions from U2-OS cells for p-ATM (S 1981), after 1 hour pre-treatment with DMSO, MW01 (10 µM), or MW05 (10 µM) and 45 min following irradiation (IR, 20 Gy). PARP1 and LDHA are used as loading controls for nuclear and cytoplasmic fractions respectively. […]
To identify inhibitors that selectively prevent DNA damage-induced NF-κB activation, we established a high-throughput screening platform quantifying p65 nuclear translocation, an essential step in NF-κB activation (Hayden and Ghosh, 2008). […] The IC50s of p65 nuclear translocation following both stimuli were determined for 21 compounds. […]

[2] = tested on: NF-κB subunit p65 phosphorylation (S536); assay: Western blot of p65 phosphorylation (S536) after TNFα in U2-OS cells; assay type: cell-based; conditions: 1-hour pre-treatment, TNFα 10 ng/ml, 20 min
Procedure: Fig.1: Identification of inhibitors specific for DNA damage-induced NF-κB activity. (A) Flowchart representing the high-throughput chemical library screening. A screen/counter-screen strategy was used by stimulating NF-κB in U2-OS cells with etoposide (50 µM for 90 min) and hits were counter-screened with TNFα (10 ng/ml for 20 min). Cells were pre-treated with compounds (10 µM) for 1 hour before stimulation, fixed, and percent p65 nuclear translocation measured by fluorescence microscopy. IC50 values were used for final selection. (B) Comparison of mean p65 nuclear translocation following either etoposide or TNFa stimulation after treatment with each counter-screened hit compound. Values were normalized to etoposide or TNFα positive controls. Specific inhibitors (red) of DNA damage-induced NF-κB signaling were defined by setting cut-off criteria (black line). […] (C) IC50 determination for MW01 (left) and MW05 (right) of p65 nuclear translocation, following either etoposide or TNFα treatment. […] IC50 noted with a dotted line. […] (E) Western blot analysis (top) and quantification (bottom) of NF-κB subunit p65 phosphorylation (S536) following 1-hour pre-treatment with DMSO, MW01 (10 µM), or MW05 (10 µM), in unstimulated, after 90 min irradiation (IR, 20 Gy), or after 20 min TNFα (10 ng/mL) conditions in U2- OS cells. […]
NF-κB was stimulated by DNA damage through either 20 Gy irradiation (IR) and analyzed after 90 minutes or by 10 ng/ml TNFα and analyzed after 20 minutes unless otherwise noted. […]
Cells were collected by scraping and lysed in Baeuerle lysis buffer supplemented with Protease (Thermo Fisher Scientific, 78429) and Phosphatase (Thermo Fisher Scientific, 78420) inhibitors after the appropriate treatment and time point. Proteins were quantified by Bradford assay (Bio-Rad, 5000006) and 20-50 µg of extracted proteins were loaded on 4-20% Protein Gel (Bio-Rad, 4568096) and then transferred onto a PVDF membrane (Bio-Rad, 1620177) using Tris-Glycine buffer with 20% of methanol. […]

[3] = HPLC of media supernatant from U2-OS cell culture (degradation); assay type: physicochemical; conditions: 10µM

SMILES	IR-induced IKKy phosphorylation and mono-ubiquitination [1]	phosphorylation of p65 at serine 536, TNFα-stimulated [2]	degradation in cell culture conditions [3]
COc1ccc2c(c1OC)c(=O)n1c3ccc(O)cc3c3ccnc2c31 [MW01, 5-Hydroxy-10,11-dimethoxy-9H-benzo[c]indolo[3,2,1-ij][1,5]naphthyridin-9-one]	inhibited	untouched	minimal degradation
COc1ccc2cc3c(N)nn(C(=O)c4cccc(N(C)C)c4)c3nc2c1 [MW05, (3-Amino-7-methoxypyrazolo[3,4-b]quinolin-1-yl)-[3-(dimethylamino)phenyl]methanone]	inhibited	untouched	minimal degradation
